Reference: patent US11779606B2, “Peptides and combination of peptides of non-canonical origin for use in immunotherapy against different types of cancers” (Immatics Biotechnologies GmbH, priority 2018, dated 2023)

Legend:
CD8+ T cells = test: In vitro T-cell priming assay (immunogenicity) with artificial APCs loaded with peptide/MHC complexes and anti-CD28; type: cell-based, human; conditions: CD8+ T cells of healthy HLA-A*02 donors, multimer staining
Excerpt: In order to obtain information regarding the immunogenicity of the TUMAPs of the present invention, the inventors performed investigations using an in vitro T-cell priming assay based on repeated stimulations of CD8+ T cells with artificial antigen presenting cells (aAPCs) loaded with peptide/MHC complexes and anti-CD28 antibody.
In order to perform in vitro stimulations by artificial antigen presenting cells loaded with peptide-MHC complex (pMHC) and anti-CD28 antibody, the inventors first isolated CD8+ T cells from fresh HLA-A*02 leukapheresis products via positive selection using CD8 microbeads (Miltenyi Biotec, Bergisch-Gladbach, Germany) of healthy donors obtained from the University clinics Mannheim, Germany, after informed consent.
PBMCs and isolated CD8+ lymphocytes were incubated in T-cell medium (TCM) until use consisting of RPMI-Glutamax (Invitrogen, Karlsruhe, Germany) supplemented with 10% heat inactivated human AB serum (PAN-Biotech, Aidenbach, Germany), 100 U/ml Penicillin/100 μg/ml Streptomycin (Cambrex, Cologne, Germany), 1 mM sodium pyruvate (CC Pro, Oberdorla, Germany), 20 μg/ml Gentamycin (Cambrex). 2.5 ng/ml IL-7 (PromoCell, Heidelberg, Germany) and 10 U/ml IL-2 (Novartis Pharma, Nümberg, Germany) were also added to the TCM at this step.
Generation of pMHC/anti-CD28 coated beads, T-cell stimulations and readout was performed in a highly defined in vitro system using four different pMHC molecules per stimulation condition and 8 different pMHC molecules per readout condition.
The purified co-stimulatory mouse IgG2a anti human CD28 Ab 9.3 (Jung et al., 1987) was chemically biotinylated using Sulfo-N-hydroxysuccinimidobiotin as recommended by the manufacturer (Perbio, Bonn, Germany). Beads used were 5.6 μm diameter streptavidin coated polystyrene particles (Bangs Laboratories, Illinois, USA).
800.000 beads/200 μl were coated in 96-well plates in the presence of 4×12.5 ng different biotin-pMHC, washed and 600 ng biotin anti-CD28 were added subsequently in a volume of 200 μl. Stimulations were initiated in 96-well plates by co-incubating […] CD8+ T cells with 2×10^5 washed coated beads in 200 μl TCM supplemented with 5 ng/ml IL-12 (PromoCell) for 3 days at 37° C. Half of the medium was then exchanged by fresh TCM supplemented with 80 U/ml IL-2 and incubating was continued for 4 days at 37° C. This stimulation cycle was performed for a total of three times. For the pMHC multimer readout using 8 different pMHC molecules per condition, a two-dimensional combinatorial coding approach was used as previously described (Andersen et al., 2012) with minor modifications encompassing coupling to 5 different fluorochromes. Finally, multimeric analyses were performed by staining the cells with Live/dead near IR dye (Invitrogen, Karlsruhe, Germany), CD8-FITC antibody clone SK1 (BD, Heidelberg, Germany) and fluorescent pMHC multimers. For analysis, a BD LSRII SORP cytometer equipped with appropriate lasers and filters was used. Peptide specific cells were calculated as percentage of total CD8+ cells. Evaluation of multimeric analysis was done using the FlowJo software (Tree Star, Oreg., USA). In vitro priming of specific multimer+CD8+ lymphocytes was detected by comparing to negative control stimulations.

HLA-A*02:01 = HLA-A*02:01 (Homo sapiens, UniProt P04439, D140Y/D185E/D98H/E176V/E277Q/G131W/G231S/I119V/I121R/I166T/I218V/L300P/L318F/N151K/N90K/P208A/P217A/Q86G/Q94H/R138H/R169H/T345S); test: MHC binding assay (UV-ligand exchange, β2m ELISA); conditions: MHC class I binding score; peptide exchange yield, binding to HLA-A*02:01, UV-ligand exchange with β2m ELISA
Excerpt: Candidate peptides for T cell based therapies according to the present invention were further tested for their MHC binding capacity (affinity).
The individual peptide-MHC complexes were produced by UV-ligand exchange, where a UV-sensitive peptide is cleaved upon UV-irradiation and exchanged with the peptide of interest as analyzed. Only peptide candidates that can effectively bind and stabilize the peptide-receptive MHC molecules prevent dissociation of the MHC complexes. To determine the yield of the exchange reaction, an ELISA was performed based on the detection of the light chain (β2m) of stabilized MHC complexes. The assay was performed as generally described in Rodenko et al. (Rodenko et al., 2006).
96 well MAXISorp plates (NUNC) were coated over night with 2 ug/ml streptavidin in PBS at room temperature, washed 4× and blocked for 1h at 37° C. in 2% BSA containing blocking buffer. Refolded HLA-A*02:01/MLA-001 monomers served as standards, covering the range of 15-500 ng/ml. Peptide-MHC monomers of the UV-exchange reaction were diluted 100 fold in blocking buffer. Samples were incubated for 1 h at 37° C., washed four times, incubated with 2 ug/ml HRP conjugated anti-β2m for 1h at 37° C., washed again and detected with TMB solution that is stopped with […]. Absorption was measured at 450 nm. Candidate peptides that show a high exchange yield (preferably higher than 50%, most preferred higher than 75%) are generally preferred for a generation and production of antibodies or fragments thereof, and/or T cell receptors or fragments thereof, as they show sufficient avidity to the MHC molecules and prevent dissociation of the MHC complexes.

| Substance | Wells positive [%] (CD8+ T cells; Table 13b) | Peptide exchange (HLA-A*02:01) | Wells positive [%] (CD8+ T cells; Table 13a) |
| --- | --- | --- | --- |
| 1 (KLLDFSTRI; listed as Homo sapiens) [compound 1] | + (<20% = +) | ++++ (≥75% = ++++) | – |
| 2 (ALLDVLVKL; listed as Homo sapiens) [compound 2] | + (<20% = +) | ++++ (≥75% = ++++) | – |
| 3 (FLLVPSPIWQL; listed as Homo sapiens) [compound 3] | + (<20% = +) | ++++ (≥75% = ++++) | – |
| 4 (YLGDSHVLL; listed as Homo sapiens) [compound 4] | + (<20% = +) | ++++ (≥75% = ++++) | – |
| 6 (ALHDSPVYL; listed as Homo sapiens) [compound 6] | ++ (20-49% = ++) | ++++ (≥75% = ++++) | – |
| 7 (ALWEEVKATSL; listed as Homo sapiens) [compound 7] | + (<20% = +) | ++++ (≥75% = ++++) | – |
| 13 (FLDEGSLLRL; listed as Homo sapiens) [compound 13] | + (<20% = +) | ++++ (≥75% = ++++) | – |
| 18 (KMMTFFQGL; listed as Homo sapiens) [compound 18] | ++++ (≥70% = ++++) | ++++ (≥75% = ++++) | – |
| 19 (MLLPWLPKL; listed as Homo sapiens) [compound 19] | +++ (50-69% = +++) | ++++ (≥75% = ++++) | – |
| 26 (KLWTSLVNL; listed as Homo sapiens) [compound 26] | +++ (50-69% = +++) | ++++ (≥75% = ++++) | – |
| 29 (LLWEFPSMA; listed as Homo sapiens) [compound 29] | ++ (20-49% = ++) | ++++ (≥75% = ++++) | – |
| 31 (VVLPIVITL; listed as Homo sapiens) [compound 31] | ++ (20-49% = ++) | ++++ (≥75% = ++++) | – |
| 33 (FASERPPSV; listed as Homo sapiens) [compound 33] | +++ (50-69% = +++) | ++++ (≥75% = ++++) | – |
| 36 (FQVTRTTGV; listed as Homo sapiens) [compound 36] | + (<20% = +) | ++++ (≥75% = ++++) | – |
| 37 (KILDEFYNV; listed as Homo sapiens) [compound 37] | +++ (50-69% = +++) | ++++ (≥75% = ++++) | – |
| 38 (SLSAWLPSL; listed as Homo sapiens) [compound 38] | + (<20% = +) | ++++ (≥75% = ++++) | – |
| 40 (FTLPFLVNL; listed as Homo sapiens) [compound 40] | +++ (50-69% = +++) | ++++ (≥75% = ++++) | – |
| 46 (AMVEIIPKV; listed as Homo sapiens) [compound 46] | + (<20% = +) | ++++ (≥75% = ++++) | – |
| 47 (ALLPGVPGL; listed as Homo sapiens) [compound 47] | ++ (20-49% = ++) | ++++ (≥75% = ++++) | – |
| 48 (MLAEIHPKA; listed as Homo sapiens) [compound 48] | +++ (50-69% = +++) | ++++ (≥75% = ++++) | – |
| 49 (FLWDPRDVVL; listed as Homo sapiens) [compound 49] | + (<20% = +) | ++++ (≥75% = ++++) | – |
| 50 (GLASYLDRV; listed as Homo sapiens) [compound 50] | + (<20% = +) | ++++ (≥75% = ++++) | – |
| 51 (GLLTQVHIL; listed as Homo sapiens) [compound 51] | + (<20% = +) | ++++ (≥75% = ++++) | – |
| 65 (IAISQLTFV; listed as Homo sapiens) [compound 65] | + (<20% = +) | ++++ (≥75% = ++++) | – |
| 68 (KLLADAFKV; listed as Homo sapiens) [compound 68] | ++++ (≥70% = ++++) | ++++ (≥75% = ++++) | – |
| 74 (TLLSYSIPL; listed as Homo sapiens) [compound 74] | + (<20% = +) | ++++ (≥75% = ++++) | – |
| 96 (KIIEDLANTV; listed as Homo sapiens) [compound 96] | ++ (20-49% = ++) | ++++ (≥75% = ++++) | – |
| 101 (KLPEGHLPEV; listed as Homo sapiens) [compound 101] | + (<20% = +) | ++++ (≥75% = ++++) | – |
| 102 (GLDPTQFRV; listed as Homo sapiens) [compound 102] | – | – | ++++ (>=70% = ++++) |
| 103 (SLVSYLDKV; listed as Homo sapiens) [compound 103] | – | – | + (<20% = +) |
